This note sets out measurements from patent US10508088B2, “Methods using HDAC11 inhibitors” (FORMA Therapeutics, Inc., priority 2016, dated 2019).

The target in one assay is HDAC1 (Homo sapiens (Human), UniProt Q13547). As to the kind of experiment: HDAC inhibition assay, electrophoretic mobility shift (Nanosyn). The note with it: read-out: HDAC Biochemical IC50 HDAC1. As to the method:
(§1) This example describes in vitro inhibition properties of exemplary HDAC11 inhibitors for various HDACs. HDAC inhibition assays were performed using an electrophoretic mobility shift assay at Nanosyn, Inc. (Santa Clara, Calif.). Full length human recombinant HDAC proteins were expressed in the baculoviral system and purified by affinity chromatography. A human recombinant HDAC3 was co-expressed with nuclear receptor corepressor (Ncor2). The following peptide substrates were used: FAM-RHKK(Ac)-NH2 for HDAC3, HDAC6 and HDAC8; FITC-H3K27(Ac)-NH2 for HDAC1, HDAC2 and HDAC10; FAM-RHKK(tri-fluor-Ac)-NH2 for HDAC4, HDAC5, HDAC7, HDAC9 and HDAC11. Reactions consisting of compound, enzyme, and substrate were performed in reaction buffer (comprised of 100 mM HEPES, pH7.5, 25 mM KCl, 0.1% bovine serum albumin, 0.01% Triton X-100) at 25° C. and quenched by the addition of termination buffer (100 mM HEPES, pH7.5, 0.01% Triton X-100, 0.05% SDS). The fluorescence intensity of the electrophoretically separated de-acetylated product and substrate peptide were measured and analyzed using the LabChip® 3000 microfluidic electrophoresis instrument (Perkin Elmer/Caliper Life Sciences). The IC50 values of inhibitors were determined by fitting the %-inhibition curves with 4 parameter dose-response model using XLfit 4 software (IDBS).

The target of a further assay is HDAC10 (Homo sapiens (Human), UniProt Q969S8). The assay is described as above. The note with it: read-out: HDAC Biochemical IC50 HDAC10. The procedure:
as §1

The next assay addresses HDAC2 (Homo sapiens (Human), UniProt Q92769). The assay is described as above. Particulars: read-out: HDAC Biochemical IC50 HDAC2. As to the method:
as §1

Assay [1] addresses HDAC3 co-expressed with nuclear receptor corepressor (Ncor2) (Homo sapiens (Human), UniProt O15379). The description is as above. The note with it: read-out: HDAC Biochemical IC50 HDAC3. As to the method: as §1
The next assay has as its target HDAC4 (Homo sapiens (Human), UniProt P56524). The assay is described as above. The note with it: read-out: HDAC Biochemical IC50 HDAC4. As to the method:
as §1

In the next assay the target is HDAC5 (Homo sapiens (Human), UniProt Q9UQL6). Described as above. Particulars: read-out: HDAC Biochemical IC50 HDAC5. As to the method:
as §1

The target in the next assay is HDAC6 (Homo sapiens (Human), UniProt Q9UBN7). The assay is described as above. The note with it: read-out: HDAC Biochemical IC50 HDAC6. As to the method: as §1
Another assay concerns the target HDAC7 (Homo sapiens (Human), UniProt Q8WUI4). The assay is described as above. The note with it: read-out: HDAC Biochemical IC50 HDAC7. The procedure:
as §1

The next assay concerns the target HDAC8 (Homo sapiens (Human), UniProt Q9BY41). The assay is described as above. The note with it: read-out: HDAC Biochemical IC50 HDAC8. As to the method:
as §1

A further assay concerns the target HDAC9 (Homo sapiens (Human), UniProt Q9UKV0). Described as above. The note with it: read-out: HDAC Biochemical IC50 HDAC9. The procedure: as §1
The subject of another assay is H1650 SP cells. As to the kind of experiment: Tube formation assay with stem-like side population NSCLC cells. The assay is classed as cell-based. Particulars: H1650 SP cells on Matrigel. The procedure: The angiogenic tubule assay was performed with the sorted side population cells to analyze vascular mimicry. The H1650 side population cells were sorted as mentioned above and they were further grown on Matrigel (BD Biosciences) to form angiogenic tubule-like structures. 100 μl of thawed Matrigel was layered on the wells of 96-well tissue culture plates and allowed to polymerize at 37° C. for 30 min. Sorted H1650 SP cells were layered (12000 cells/100 μl of Matrigel) on the polymerized matrigel and incubated overnight at 37° C. Tubule formation was assessed under bright field using EVOS FL microscope system and images were acquired with EVOS software (Life Technologies Inc., USA). For the treatment with HDAC11 inhibitors, appropriate concentrations of the compounds were added to the cells when they were seeded on Matrigel for the tubule formation assay.

The test system of a further assay is A549 cells. As to the kind of experiment: Cell migration scratch assay. It is filed as cell-based. As to the method:
The effects of HDAC11 inhibition on cell migration were determined using a scratch assay. A549 cells (120,000-150,000 cells/2 ml/well) were grown in 6-well tissue culture plates (BD Biosciences). A scratch was made using a sterile 2 μl pipette tip in each well. The 10% FBS containing medium was added to the wells after a wash with DPBS. To assess the effect of the HDAC11 inhibitors on cell migration, the inhibitors were added in the medium at appropriate concentrations. The cells were further incubated at 37° C. The images were taken on Day 0 and after every 24 hours using EVOS FL microscope system and EVOS software (Life Technologies Inc) and the cell migration was compared to the Day 0 of treatment.

Assay [2] relates to H1650 cells co-cultured with primary CAFs. Put plainly: Co-culture assay with cancer cells and cancer associated fibroblasts. The note with it: 1:1 co-culture. The assay is classed as cell-based. As to the method:
(§2) The effects of selective HDAC11 inhibition on cancer cells and cancer associated fibroblasts (CAFs) were determined in a co-culture assay. The cells were first trypsinized and collected in serum containing medium and were further incubated in same media at 37° C. for 15-20 min for recovery. The cells were resuspended in serum free media at 1×10^6 cells/ml density and stained with 10 uM of cytotracker green (Cancer associated fibroblasts) or cytotracker red dye (H1650 cells) (Life Technologies Inc) at 37° C. for 90 min. The stained cells were washed twice with serum free medium to remove excess dye at 1500 rpm for 5 min. The cytotracker green stained CAFs were mixed with cytotracker red stained H1650 cells in 1:1 ratio and grown in 96-well tissue culture plate overnight. The HDAC11 inhibitors were then added to the mixed adhered cells (CAFs+H1650) at appropriate concentrations. The images were taken on Day 0 and after every 24 hours using EVOS FL microscope system and EVOS software (Life Technologies Inc).

Assay [3] concerns primary CAFs from human lung cancer. Described as above. Particulars: 1:1 co-culture with H1650. The assay is classed as cell-based. The procedure:
as §2

Sequence of HDAC1 (Q13547 whole entry): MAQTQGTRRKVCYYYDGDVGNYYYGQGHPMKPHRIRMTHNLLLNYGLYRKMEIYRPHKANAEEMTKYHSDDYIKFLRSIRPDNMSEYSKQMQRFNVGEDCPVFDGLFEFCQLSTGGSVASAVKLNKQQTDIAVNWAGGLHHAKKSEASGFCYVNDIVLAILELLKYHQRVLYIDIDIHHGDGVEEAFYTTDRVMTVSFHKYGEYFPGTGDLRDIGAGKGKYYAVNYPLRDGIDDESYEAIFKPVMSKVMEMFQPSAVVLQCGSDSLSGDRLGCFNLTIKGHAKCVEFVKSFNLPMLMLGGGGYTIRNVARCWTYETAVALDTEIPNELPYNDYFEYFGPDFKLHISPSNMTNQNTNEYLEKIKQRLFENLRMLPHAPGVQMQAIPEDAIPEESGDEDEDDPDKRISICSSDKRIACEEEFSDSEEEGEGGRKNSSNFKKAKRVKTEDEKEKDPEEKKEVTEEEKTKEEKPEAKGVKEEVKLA
Sequence of HDAC3 co-expressed with nuclear receptor corepressor (Ncor2) (O15379 whole entry): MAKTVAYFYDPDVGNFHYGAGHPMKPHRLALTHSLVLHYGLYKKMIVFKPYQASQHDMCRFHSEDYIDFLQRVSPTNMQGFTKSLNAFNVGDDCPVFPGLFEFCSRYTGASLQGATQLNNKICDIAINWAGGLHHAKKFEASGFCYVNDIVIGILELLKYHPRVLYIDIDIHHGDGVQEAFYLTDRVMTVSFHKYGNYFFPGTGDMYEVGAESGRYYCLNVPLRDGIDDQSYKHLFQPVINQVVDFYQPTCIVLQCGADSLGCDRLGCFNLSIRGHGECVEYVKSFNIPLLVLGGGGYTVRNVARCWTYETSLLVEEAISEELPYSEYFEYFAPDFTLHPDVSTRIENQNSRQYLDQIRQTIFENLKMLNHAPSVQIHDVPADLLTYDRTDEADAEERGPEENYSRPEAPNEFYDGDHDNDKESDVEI
Sequence of HDAC3 co-expressed with nuclear receptor corepressor (Ncor2) (Q9Y618 395-489 partner): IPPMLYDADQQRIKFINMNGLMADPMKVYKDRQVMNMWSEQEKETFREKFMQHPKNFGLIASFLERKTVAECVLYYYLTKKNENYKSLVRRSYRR
Sequence of HDAC9 (Q9UKV0 whole entry): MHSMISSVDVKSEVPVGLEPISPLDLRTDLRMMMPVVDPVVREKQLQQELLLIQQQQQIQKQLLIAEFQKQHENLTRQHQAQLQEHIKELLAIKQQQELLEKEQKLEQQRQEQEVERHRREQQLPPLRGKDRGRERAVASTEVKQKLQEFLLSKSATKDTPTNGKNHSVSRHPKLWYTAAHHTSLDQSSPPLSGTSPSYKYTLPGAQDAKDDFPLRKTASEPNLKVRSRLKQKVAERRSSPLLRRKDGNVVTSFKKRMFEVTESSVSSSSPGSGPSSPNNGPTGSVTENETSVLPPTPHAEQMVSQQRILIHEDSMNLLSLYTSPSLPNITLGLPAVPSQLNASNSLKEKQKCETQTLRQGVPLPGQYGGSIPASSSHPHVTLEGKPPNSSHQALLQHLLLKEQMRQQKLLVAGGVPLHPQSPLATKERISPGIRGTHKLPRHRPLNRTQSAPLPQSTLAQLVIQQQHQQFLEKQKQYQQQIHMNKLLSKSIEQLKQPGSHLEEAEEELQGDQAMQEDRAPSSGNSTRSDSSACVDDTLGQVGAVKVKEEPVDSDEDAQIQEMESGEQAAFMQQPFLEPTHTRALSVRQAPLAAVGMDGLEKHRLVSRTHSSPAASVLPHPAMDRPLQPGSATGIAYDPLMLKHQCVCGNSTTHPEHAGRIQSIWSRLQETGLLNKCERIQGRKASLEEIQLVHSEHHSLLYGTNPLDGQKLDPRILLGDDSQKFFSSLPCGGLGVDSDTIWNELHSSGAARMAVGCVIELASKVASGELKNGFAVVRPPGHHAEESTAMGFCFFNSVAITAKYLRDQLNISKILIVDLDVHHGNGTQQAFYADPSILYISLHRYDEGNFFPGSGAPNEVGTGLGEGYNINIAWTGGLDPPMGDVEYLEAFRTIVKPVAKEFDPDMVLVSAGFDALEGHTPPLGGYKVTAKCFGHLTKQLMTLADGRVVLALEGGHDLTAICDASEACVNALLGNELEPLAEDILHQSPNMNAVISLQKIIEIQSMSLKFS
Sequence of HDAC10 (Q969S8 whole entry): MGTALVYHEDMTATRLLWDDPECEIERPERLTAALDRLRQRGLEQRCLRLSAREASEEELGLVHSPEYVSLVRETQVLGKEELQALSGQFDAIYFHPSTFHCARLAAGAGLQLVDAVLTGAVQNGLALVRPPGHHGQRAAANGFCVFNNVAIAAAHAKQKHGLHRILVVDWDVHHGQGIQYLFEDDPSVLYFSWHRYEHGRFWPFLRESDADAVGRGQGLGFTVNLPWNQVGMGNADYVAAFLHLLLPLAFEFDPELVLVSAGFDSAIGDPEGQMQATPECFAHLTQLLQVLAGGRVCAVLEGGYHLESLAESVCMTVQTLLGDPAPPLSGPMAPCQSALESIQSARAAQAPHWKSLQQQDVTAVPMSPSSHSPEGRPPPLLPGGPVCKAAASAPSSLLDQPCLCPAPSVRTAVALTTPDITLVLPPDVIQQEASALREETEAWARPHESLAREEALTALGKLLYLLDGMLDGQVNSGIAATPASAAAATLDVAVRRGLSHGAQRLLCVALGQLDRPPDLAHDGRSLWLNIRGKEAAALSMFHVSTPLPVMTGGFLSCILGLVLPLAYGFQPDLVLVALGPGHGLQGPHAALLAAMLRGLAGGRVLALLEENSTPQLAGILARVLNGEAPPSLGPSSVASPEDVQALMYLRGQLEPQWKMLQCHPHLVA
Sequence of HDAC4 (P56524 whole entry): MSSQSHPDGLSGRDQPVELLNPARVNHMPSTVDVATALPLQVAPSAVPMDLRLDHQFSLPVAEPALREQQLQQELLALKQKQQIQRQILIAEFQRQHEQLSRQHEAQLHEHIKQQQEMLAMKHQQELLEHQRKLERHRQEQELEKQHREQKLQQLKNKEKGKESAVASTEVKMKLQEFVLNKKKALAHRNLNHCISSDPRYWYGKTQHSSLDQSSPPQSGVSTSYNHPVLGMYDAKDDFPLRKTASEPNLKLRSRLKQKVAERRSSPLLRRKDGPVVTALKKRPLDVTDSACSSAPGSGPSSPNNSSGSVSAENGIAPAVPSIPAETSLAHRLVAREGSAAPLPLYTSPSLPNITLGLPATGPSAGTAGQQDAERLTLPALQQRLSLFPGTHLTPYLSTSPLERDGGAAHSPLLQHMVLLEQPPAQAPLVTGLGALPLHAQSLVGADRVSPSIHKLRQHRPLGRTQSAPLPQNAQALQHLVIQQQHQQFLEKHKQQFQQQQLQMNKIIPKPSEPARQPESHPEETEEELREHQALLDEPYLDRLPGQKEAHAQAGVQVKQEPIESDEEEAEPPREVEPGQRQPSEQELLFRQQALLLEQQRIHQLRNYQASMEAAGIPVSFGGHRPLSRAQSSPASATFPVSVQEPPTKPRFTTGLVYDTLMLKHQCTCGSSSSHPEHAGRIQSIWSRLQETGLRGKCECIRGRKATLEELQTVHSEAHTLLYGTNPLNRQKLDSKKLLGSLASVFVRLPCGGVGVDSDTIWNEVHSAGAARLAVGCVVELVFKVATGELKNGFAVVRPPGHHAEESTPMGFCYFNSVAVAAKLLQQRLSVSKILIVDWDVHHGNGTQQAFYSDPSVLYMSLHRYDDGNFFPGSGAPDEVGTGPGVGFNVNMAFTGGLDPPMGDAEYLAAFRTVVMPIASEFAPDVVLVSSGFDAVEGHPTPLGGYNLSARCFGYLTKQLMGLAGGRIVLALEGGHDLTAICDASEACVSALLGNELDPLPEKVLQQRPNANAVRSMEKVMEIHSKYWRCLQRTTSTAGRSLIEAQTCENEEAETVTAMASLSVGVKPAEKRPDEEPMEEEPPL
Sequence of HDAC2 (Q92769 whole entry): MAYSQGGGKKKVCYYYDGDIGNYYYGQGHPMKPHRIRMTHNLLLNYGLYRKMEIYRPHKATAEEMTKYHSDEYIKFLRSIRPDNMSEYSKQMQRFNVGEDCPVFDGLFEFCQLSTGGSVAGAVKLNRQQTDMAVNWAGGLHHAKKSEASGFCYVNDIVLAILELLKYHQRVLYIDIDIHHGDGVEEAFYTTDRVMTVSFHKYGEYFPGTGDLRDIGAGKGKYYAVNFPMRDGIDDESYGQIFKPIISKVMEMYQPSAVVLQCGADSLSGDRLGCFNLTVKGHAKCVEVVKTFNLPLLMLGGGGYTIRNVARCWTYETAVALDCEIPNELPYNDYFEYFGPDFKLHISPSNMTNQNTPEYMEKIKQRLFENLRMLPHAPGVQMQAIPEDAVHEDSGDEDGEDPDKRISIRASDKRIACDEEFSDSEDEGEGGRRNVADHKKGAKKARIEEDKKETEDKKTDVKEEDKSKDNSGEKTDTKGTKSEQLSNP
Sequence of HDAC8 (Q9BY41 whole entry): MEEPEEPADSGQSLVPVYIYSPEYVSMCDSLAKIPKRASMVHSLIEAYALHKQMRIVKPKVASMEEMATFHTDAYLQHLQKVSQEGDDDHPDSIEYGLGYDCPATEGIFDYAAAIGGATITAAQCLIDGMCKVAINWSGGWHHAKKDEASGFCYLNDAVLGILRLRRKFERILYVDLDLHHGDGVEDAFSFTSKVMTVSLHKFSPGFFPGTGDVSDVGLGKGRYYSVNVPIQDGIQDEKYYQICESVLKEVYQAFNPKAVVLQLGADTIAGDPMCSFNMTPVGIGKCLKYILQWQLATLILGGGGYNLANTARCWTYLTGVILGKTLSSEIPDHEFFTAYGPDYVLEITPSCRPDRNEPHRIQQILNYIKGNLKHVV

As to `O=C(NO)c1cccc2c1C[C@]1(CCN(Cc3ccc(Cl)c(C(F)(F)F)c3)C1=O)C2` [HDTK054, (S)-1′-(4-chloro-3-(trifluoromethyl)benzyl)-N-hydroxy-2′-oxo-1,3-dihydrospiro[indene-2,3′-pyrrolidine]-4-carboxamide], the IC50 (on HDAC1; at HDAC10; at HDAC2; in assay [1]; at HDAC4; at HDAC5) was greater than 10 µM throughout. Moreover, the IC50 was greater than 10 µM on HDAC6, greater than 10 µM at HDAC7, 5 to 10 µM at HDAC8 and greater than 10 µM at HDAC9. Further, in the assay with H1650 SP cells, the tubule formation entry is “inhibited tubule formation”. In addition, the cell migration entry in the assay on A549 cells was “impaired”. Also, the “growth of H1650 cells co-cultured with primary CAFs” value in assay [2] is recorded as “inhibit the growth”. In addition, in assay [3], the “effects on CAFs” value is on record as “minimal effects”.

As for `O=C(NO)c1cccc(Nc2nc3cc(Cl)c(Cl)cc3o2)c1` [HDTK010, 3-((5,6-dichlorobenzo[d]oxazol-2-yl)amino)-N-hydroxybenzamide], the IC50 (on HDAC1; at HDAC10; at HDAC2; in assay [1]; at HDAC4; on HDAC5) was greater than 10 µM throughout. For the same molecule, the IC50 on HDAC6 was 0.5 to 1 µM; at HDAC7 it was 5 to 10 µM; on HDAC8, 0.5 to 1 µM; at HDAC9, greater than 10 µM.
